Test results: patent publication US11458138B2 (Novartis AG, priority 2017, dated 2022)

Assays:
LATS1 = LATS1 (Homo sapiens (Human), UniProt O95835); experiment: LATS1 biochemical assay (Table 1A, Compound Examples 1-290; method in the earlier part)
[1] = system: Phospho-YAP (SER127) in HaCaT cells; experiment: pYAP HTRF Assay (HaCaT Cells); type: cell-based, human; details: Homo sapiens, 2 hours
Protocol: The pYAP HTRF assay was performed using the Phospho-YAP (SER127) 10000 test kit (CisBio, catalogue number 64YAPPEH) according to manufacturer's instructions. Briefly, HaCaT cells were suspended at 1.1×10^6 cells/mL in DMEM (no phenol red)+10% FBS with penicillin-streptomycin-glutamine. 5 μL of cells were dispensed into 1536 well white solid bottom, tissue culture treated plates (5500 cells/well), and incubated for 48 hours at 37° C. 50 nL test compound was transferred into the assay plates containing HaCaT cells using Pintool (GNF) and incubated for 2 hours. […] The plates were incubated overnight (20 hrs) at room temperature covered with metal lids. Plates were read on Pherastar (BMG Labtech) for HTRF (665 nm/620 nm).

[2] = system: YAP nuclear translocation in HaCaT cells; experiment: YAP Translocation Assay (HaCaT Cells); type: cell-based, human; details: Homo sapiens, 24 hours
Protocol: HaCaT cells were suspended at 0.4×10^6 cells/ml in DMEM+10% FBS with penicillin-streptomycin-glutamine. 50 μl of cells were dispensed into 384-well clear bottom assay plates (20,000 cells/well), and incubated overnight at 37° C. 100 nL test compound was transferred into the assay wells containing HaCaT cells using ECHO (Labcyte). After 24 hours incubation at 37° C., 7 μL of 32% PFA was dispensed into each well and incubated for 45 minutes at room temperature. Plates were washed 3 times with PBS, leaving 20 μL of PBS per well, then treated with 0.1% Triton and 1.5% BSA in PBS for 45 minutes at room temperature. Plates were washed for 5 times with PBS, leaving 20 μL of PBS per well. […] Plates were further washed 3 time with PBS, sealed and imaged on the high-content Opera imaging system (PerkinElmer).

Chain of LATS1 (O95835 whole entry, looked up): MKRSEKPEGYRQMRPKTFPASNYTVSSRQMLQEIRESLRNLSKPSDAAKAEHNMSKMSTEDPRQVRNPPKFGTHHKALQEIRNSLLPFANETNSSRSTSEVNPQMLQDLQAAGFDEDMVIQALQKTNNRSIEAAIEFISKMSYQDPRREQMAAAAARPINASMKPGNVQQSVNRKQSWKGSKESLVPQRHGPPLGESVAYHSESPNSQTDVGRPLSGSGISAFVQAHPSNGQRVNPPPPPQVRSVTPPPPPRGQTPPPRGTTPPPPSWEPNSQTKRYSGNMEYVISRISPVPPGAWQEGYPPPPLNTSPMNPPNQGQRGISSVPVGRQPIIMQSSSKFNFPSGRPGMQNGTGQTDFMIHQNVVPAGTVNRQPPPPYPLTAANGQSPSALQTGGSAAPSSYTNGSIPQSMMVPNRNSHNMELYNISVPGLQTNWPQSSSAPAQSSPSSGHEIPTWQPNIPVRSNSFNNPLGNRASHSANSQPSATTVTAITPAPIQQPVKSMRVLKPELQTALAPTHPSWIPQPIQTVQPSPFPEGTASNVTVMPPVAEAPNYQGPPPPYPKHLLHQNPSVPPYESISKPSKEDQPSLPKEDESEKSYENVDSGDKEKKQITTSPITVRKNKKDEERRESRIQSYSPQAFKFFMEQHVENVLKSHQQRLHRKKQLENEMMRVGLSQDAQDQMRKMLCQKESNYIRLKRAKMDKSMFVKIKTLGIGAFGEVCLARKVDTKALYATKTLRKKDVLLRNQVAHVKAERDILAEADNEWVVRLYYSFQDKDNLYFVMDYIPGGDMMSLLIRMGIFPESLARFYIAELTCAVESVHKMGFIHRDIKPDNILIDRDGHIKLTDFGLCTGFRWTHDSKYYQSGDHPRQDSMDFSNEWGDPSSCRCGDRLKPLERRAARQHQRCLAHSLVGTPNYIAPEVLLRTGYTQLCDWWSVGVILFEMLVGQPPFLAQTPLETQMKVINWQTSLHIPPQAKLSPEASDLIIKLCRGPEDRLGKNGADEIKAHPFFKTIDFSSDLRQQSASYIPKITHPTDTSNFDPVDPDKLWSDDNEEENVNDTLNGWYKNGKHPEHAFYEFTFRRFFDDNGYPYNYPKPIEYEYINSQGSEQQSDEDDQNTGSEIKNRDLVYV
Chain of LATS1 (Q7L9L4 whole entry partner, looked up): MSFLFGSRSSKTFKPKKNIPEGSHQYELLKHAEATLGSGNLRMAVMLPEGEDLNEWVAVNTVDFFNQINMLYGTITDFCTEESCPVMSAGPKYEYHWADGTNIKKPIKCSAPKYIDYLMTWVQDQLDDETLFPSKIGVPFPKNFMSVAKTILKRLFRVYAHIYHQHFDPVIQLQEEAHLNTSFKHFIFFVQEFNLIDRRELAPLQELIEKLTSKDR

SMILES | IC50 (LATS1) [nM] | IC50 [1] [nM] | EC50 [2] [nM]
CC(C)(CNC(=O)OC(C)(C)C)Nc1nc(-c2ccncc2)nc2cnccc12 [Example 100, Tert-butyl N-(2-methyl-2-{[2-(pyridin-4-yl)pyrido[3,4-d]pyrimidin-4-yl]amino}propyl)carbamate] | 4 | 11600 | 4830
NCCCCNc1nc(-c2ccncc2)nc2cnccc12 [Example 106, N-(4-aminobutyl)-2-(pyridin-4-yl)pyrido[3,4-d]pyrimidin-4-amine] | 3 | 14200 | > 20000
CCCNc1nc(-c2c(C)[nH]c3ncccc23)nc2cnccc12 [Example 142, 2-{2-methyl-1H-pyrrolo[2,3-b]pyridin-3-yl}-N-propylpyrido[3,4-d]pyrimidin-4-amine] | 6 | > 100000 | > 28000
CCOC(=O)C1(Nc2nc(-c3ccncc3)nc3cnccc23)CCC1 [Example 55, ethyl 1-{[2-(pyridin-4-yl)pyrido[3,4-d]pyrimidin-4-yl]amino}cyclobutane-1-carboxylate] | 460 | > 10000 | > 20000
CC(C)(CCS(C)(=O)=O)Nc1nc(-c2ccncc2)nc2cnccc12 [Example 22, N-(4-methanesulfonyl-2-methylbutan-2-yl)-2-(pyridin-4-yl)pyrido[3,4-d]pyrimidin-4-amine] | 7 | 11400 | 13000
Cc1[nH]ncc1-c1nc(N[C@H](C)c2ccccc2)c2ccncc2n1 [Example 168, 2-(5-methyl-1H-pyrazol-4-yl)-N-[(1R)-1-phenylethyl]pyrido[3,4-d]pyrimidin-4-amine] | 28 | 26500 | 11600
CC(C)(CN1CCOCC1)Nc1nc(-c2ccncc2)nc2cnccc12 [Example 74] | 6 | 3400 | 12700
CC(C)(CO)Nc1cc(-c2ccncc2F)nc2cnccc12 [Example 282, 2-{[2-(3-fluoropyridin-4-yl)-1,7-naphthyridin-4-yl]amino}-2-methylpropan-1-ol] | 10 | 8270 | 11300
CC1(Nc2nc(-c3ccnc4[nH]ccc34)nc3cnccc23)CC1 [Example 154, N-(1-methylcyclopropyl)-2-{1H-pyrrolo[2,3-b]pyridin-4-yl}pyrido[3,4-d]pyrimidin-4-amine] |  | 2530 | 1060
Cc1n[nH]c(C)c1-c1nc(NC(C)(C)C(F)(F)F)c2ccncc2n1 [Example 144, 2-(3,5-dimethyl-1H-pyrazol-4-yl)-N-(1,1,1-trifluoro-2-methylpropan-2-yl)pyrido[3,4-d]pyrimidin-4-amine] |  | 606 | 4440
CC(C)(CS(C)(=O)=O)Nc1nc(-c2ccncc2)nc2cnccc12 [Example 28, N-(1-methanesulfonyl-2-methylpropan-2-yl)-2-(pyridin-4-yl)pyrido[3,4-d]pyrimidin-4-amine] | 36 |  | > 20000
CC(C)(O)CC(C)(C)Nc1nc(-c2ccncc2C#N)nc2cnccc12 [Example 146, 4-{4-[(4-hydroxy-2,4-dimethylpentan-2-yl)amino]pyrido[3,4-d]pyrimidin-2-yl}pyridine-3-carbonitrile] | 33 |  | > 20000
CC(C)(O)COCC(C)(C)Nc1nc(-c2ccncc2Cl)nc2cnccc12 [Example 127, 1-(2-{[2-(3-chloropyridin-4-yl)pyrido[3,4-d]pyrimidin-4-yl]amino}-2-methylpropoxy)-2-methylpropan-2-ol] | 55 |  | > 20000
CN[C@@H]1CCCC[C@H]1N(C)c1nc(-c2ccncc2)nc2cnccc12 [Example 53, (1R,2R)-1-N,2-N-dimethyl-1-N-[2-(pyridin-4-yl)pyrido[3,4-d]pyrimidin-4-yl]cyclohexane-1,2-diamine] | 40 |  | > 20000
CN(c1nc(-c2cn[nH]c2)nc2cnccc12)C1(C)CC1 [Example 171, N-methyl-N-(1-methylcyclopropyl)-2-(1H-pyrazol-4-yl)pyrido[3,4-d]pyrimidin-4-amine] | 54 |  | 17200
Cc1ccc(Nc2nc(-c3ccncc3)nc3cnccc23)cc1 [Example 90, N-(4-methylphenyl)-2-(pyridin-4-yl)pyrido[3,4-d]pyrimidin-4-amine] | 126 |  | > 20000
CCN(CC)c1cc(-c2ccncc2)nc2cnccc12 [Example 266, N,N-diethyl-2-(pyridin-4-yl)-1,7-naphthyridin-4-amine] | 9 |  | 5350
CC(C)S(=O)(=O)Nc1nc(-c2ccncc2)nc2cnccc12 [Example 45, N-[2-(pyridin-4-yl)pyrido[3,4-d]pyrimidin-4-yl]propane-2-sulfonamide] | > 2500 |  | > 20000
CC(C)N(C)c1cc(-c2ccncc2F)nc2cnccc12 [Example 277, 2-(3-fluoropyridin-4-yl)-N-methyl-N-(propan-2-yl)-1,7-naphthyridin-4-amine] | 65 |  | > 20000
CC(C)C(=O)Nc1nc(-c2ccncc2)nc2cnccc12 [Example 43, 2-methyl-N-[2-(pyridin-4-yl)pyrido[3,4-d]pyrimidin-4-yl]propanamide] | > 1970 |  | > 20000
CC(C)(O)CC(C)(C)Nc1nc(-c2cn[nH]c2)nc2cnccc12 [Example 166, 2,4-dimethyl-4-{[2-(1H-pyrazol-4-yl)pyrido[3,4-d]pyrimidin-4-yl]amino}pentan-2-ol] | 14 |  | 8450
CC(C)(Nc1nc(-c2ccncc2)nc2cnccc12)C12CC3CC(CC(C3)C1)C2 [Example 42, N-[2-(adamantan-1-yl)propan-2-yl]-2-(pyridin-4-yl)pyrido[3,4-d]pyrimidin-4-amine] | 711 |  | 11600
CC1(Nc2nc(-c3ccnc(F)c3F)nc3cnccc23)CC1 [Example 148, 2-(2,3-difluoropyridin-4-yl)-N-(1-methylcyclopropyl)pyrido[3,4-d]pyrimidin-4-amine] | 168 |  | > 20000
OCCC(Nc1nc(-c2ccncc2)nc2cnccc12)C(F)(F)F (stereo not shown) [Example 27, 4,4,4-trifluoro-3-{[2-(pyridin-4-yl)pyrido[3,4-d]pyrimidin-4-yl]amino}butan-1-ol] | 35 |  | > 14400
C[C@@](Nc1nc(-c2ccncc2)nc2cnccc12)(C(=O)O)C(F)(F)F [Example 31, (2R)-3,3,3-trifluoro-2-methyl-2-{[2-(pyridin-4-yl)pyrido[3,4-d]pyrimidin-4-yl]amino}propanoic acid] | 41 |  | > 20000
Cn1cncc1-c1nc(NC2(C)CC2)c2ccncc2n1 [Example 178, 2-(1-methyl-1H-imidazol-5-yl)-N-(1-methylcyclopropyl)pyrido[3,4-d]pyrimidin-4-amine] | > 2500 |  | > 20000
CC(C)(CCO)Nc1cc(-c2ccncc2)nc2cnccc12 [Example 260, 3-methyl-3-{[2-(pyridin-4-yl)-1,7-naphthyridin-4-yl]amino}butan-1-ol] | 459 |  | > 20000
Fc1cnccc1-c1cc(N2CCCCC2)c2ccncc2n1 [Example 278, 2-(3-fluoropyridin-4-yl)-4-(piperidin-1-yl)-1,7-naphthyridine] | 90 |  | > 20000
